Measurements as given in patent US7928107B2, “Quinazolines useful as modulators of ion channels” (Vertex Pharmaceuticals Incorporated, priority 2004, dated 2011).

biological target: NaV 1.8 channel (Homo sapiens, UniProt Q9Y5Y9); assay: Activity against NaV 1.8 channel (optical membrane potential assay); type: cell-based
Procedure, shortened: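 Cells expressing the NaV of interest loaded with CC2-DMPE (30 min, room temperature) then DiSBAC2(3) with ABSCl and veratridine; compound incubated 20–30 min. Depolarization triggered by sodium add-back and read on VIPR as 460/580 nm FRET ratio (Rf/Ri), normalized to tetracaine and untreated controls.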

NaV 1.8 channel, sequence (Q9Y5Y9 whole entry): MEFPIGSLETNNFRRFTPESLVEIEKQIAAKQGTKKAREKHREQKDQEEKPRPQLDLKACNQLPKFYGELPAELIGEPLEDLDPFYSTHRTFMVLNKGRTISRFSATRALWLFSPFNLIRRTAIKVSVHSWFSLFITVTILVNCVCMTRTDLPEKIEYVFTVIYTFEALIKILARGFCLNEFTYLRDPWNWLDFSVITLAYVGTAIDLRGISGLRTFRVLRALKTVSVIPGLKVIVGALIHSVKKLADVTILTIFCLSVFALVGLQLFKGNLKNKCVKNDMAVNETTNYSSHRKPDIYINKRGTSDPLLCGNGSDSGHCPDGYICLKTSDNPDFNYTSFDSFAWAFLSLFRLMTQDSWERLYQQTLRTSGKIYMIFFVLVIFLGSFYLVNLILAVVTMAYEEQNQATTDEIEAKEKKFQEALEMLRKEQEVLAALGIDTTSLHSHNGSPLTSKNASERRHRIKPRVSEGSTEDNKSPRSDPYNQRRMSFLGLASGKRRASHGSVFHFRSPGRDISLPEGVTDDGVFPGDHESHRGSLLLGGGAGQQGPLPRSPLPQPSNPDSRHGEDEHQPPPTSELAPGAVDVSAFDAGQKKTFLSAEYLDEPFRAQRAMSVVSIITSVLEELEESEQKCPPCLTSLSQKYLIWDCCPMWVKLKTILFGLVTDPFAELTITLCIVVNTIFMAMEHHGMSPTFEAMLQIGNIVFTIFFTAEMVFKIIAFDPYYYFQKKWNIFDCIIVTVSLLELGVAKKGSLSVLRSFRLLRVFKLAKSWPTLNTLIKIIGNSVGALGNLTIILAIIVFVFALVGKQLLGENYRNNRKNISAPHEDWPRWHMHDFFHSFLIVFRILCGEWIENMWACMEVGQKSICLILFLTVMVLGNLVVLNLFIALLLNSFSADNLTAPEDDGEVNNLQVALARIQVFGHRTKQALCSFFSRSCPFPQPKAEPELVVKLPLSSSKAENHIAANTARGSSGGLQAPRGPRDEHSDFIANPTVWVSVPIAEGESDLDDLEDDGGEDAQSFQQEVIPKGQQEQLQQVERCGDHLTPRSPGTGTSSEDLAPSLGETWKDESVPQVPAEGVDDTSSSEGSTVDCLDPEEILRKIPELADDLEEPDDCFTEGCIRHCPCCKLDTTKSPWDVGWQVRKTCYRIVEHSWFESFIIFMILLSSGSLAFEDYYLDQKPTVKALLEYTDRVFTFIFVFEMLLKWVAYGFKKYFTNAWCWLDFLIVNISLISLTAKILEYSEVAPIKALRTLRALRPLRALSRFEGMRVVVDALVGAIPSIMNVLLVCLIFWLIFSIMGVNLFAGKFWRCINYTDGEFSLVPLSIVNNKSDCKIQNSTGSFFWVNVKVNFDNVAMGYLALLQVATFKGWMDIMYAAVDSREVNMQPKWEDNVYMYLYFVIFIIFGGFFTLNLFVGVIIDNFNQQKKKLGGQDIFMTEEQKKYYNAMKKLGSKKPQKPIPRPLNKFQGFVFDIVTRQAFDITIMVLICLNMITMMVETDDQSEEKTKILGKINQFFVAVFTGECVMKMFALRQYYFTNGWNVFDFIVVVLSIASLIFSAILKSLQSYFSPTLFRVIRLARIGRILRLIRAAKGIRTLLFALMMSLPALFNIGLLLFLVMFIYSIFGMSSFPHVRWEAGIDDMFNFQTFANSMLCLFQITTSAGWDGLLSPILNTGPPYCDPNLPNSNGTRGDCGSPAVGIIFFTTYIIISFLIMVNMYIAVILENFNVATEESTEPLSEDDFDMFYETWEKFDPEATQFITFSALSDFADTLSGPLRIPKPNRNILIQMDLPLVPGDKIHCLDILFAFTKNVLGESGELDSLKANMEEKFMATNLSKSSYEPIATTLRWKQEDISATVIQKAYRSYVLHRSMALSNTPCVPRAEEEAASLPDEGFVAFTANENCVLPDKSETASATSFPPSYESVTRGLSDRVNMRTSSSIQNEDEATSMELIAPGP

Structure (SMILES)	IC50 [µM]
Cc1ccc2c(N3CCN(C(=O)[C@@H](O)C(C)(C)C)CC3)nc(-c3ccccc3O)nc2c1 [Example 166, (S)-2-Hydroxy-1-(4-(2-(2-hydroxyphenyl)-7-methylquinazolin-4-yl)piperazin-1-yl)-3,3-dimethylbutan-1-one]	> 10
C[C@@H](O)CC(=O)N1CCN(c2nc(-c3ccccc3O)nc3ccccc23)CC1 [Example 173, (R)-3-Hydroxy-1-(4-(2-(2-hydroxyphenyl)quinazolin-4-yl)piperazin-1-yl)butan-1-one]	> 10
CC(C)C[C@@H](O)C(=O)N1CCN(c2nc(-c3ccccc3O)nc3cc(C(=O)O)ccc23)CC1 [Example 123, 4-[4-((R)-2-Hydroxy-4-methyl-pentanoyl)-piperazin-1-yl]-2-(2-hydroxy-phenyl)-quinazoline-7-carboxylic acid]	> 10
Cc1ccc2c(N3CCN(C(=O)C(C)(C)O)CC3)nc(-c3ccccc3O)nc2c1 [Example 108, 2-Hydroxy-1-(4-(2-(2-hydroxyphenyl)-7-methylquinazolin-4-yl)piperazin-1-yl)-2-methylpropan-1-one]	2 to 10
O=C(NC1CCN(c2nc(-c3c(O)cccc3Cl)nc3ccccc23)CC1)[C@H]1CCCO1 [Example 213, (2R)—N—(1-(2-(2-Chloro-6-hydroxyphenyl)quinazolin-4-yl)piperidin-4-yl)-tetrahydrofuran-2-carboxamide]	> 10
CC(O)(C(=O)N1CCN(c2nc(-c3ccccc3O)nc3ccccc23)CC1)C(F)(F)F (centres unmarked) [Example 178, 2-(Trifluoromethyl)-2-hydroxy-1-(4-(2-(2-hydroxyphenyl)quinazolin-4-yl)piperazin-1-yl)propan-1-one]	> 10
CC(C)=CC(O)C(=O)N1CCN(c2nc(-c3ccccc3O)nc3cc(C)ccc23)CC1 (centres unmarked) [Example 189]	2 to 10
O=C(OCc1cccc2c1OCO2)N1CCN(c2nc(-c3ccccc3O)nc3ccccc23)CC1 [Example 140, (Benzo[d][1,3]dioxol-7-yl)methyl 4-(2-(2-hydroxyphenyl)quinazolin-4-yl)piperazine-1-carboxylate]	> 10
Cc1ccc2c(N3CCN(C(=O)C(O)c4ccc(F)cc4)CC3)nc(-c3ccccc3O)nc2c1 (centres unmarked) [Example 170, 2-(4-Fluorophenyl)-2-hydroxy-1-(4-(2-(2-hydroxyphenyl)-7-methylquinazolin-4-yl)piperazin-1-yl)ethanone]	> 10
Cc1ccc2c(N3CCN(C(=O)C(C)(O)C(F)(F)F)CC3)nc(-c3ccccc3O)nc2c1 (centres unmarked) [Example 110, 2-(Trifluoromethyl)-2-hydroxy-1-(4-(2-(2-hydroxyphenyl)-7-methylquinazolin-4-yl)piperazin-1-yl)propan-1-one]	> 10
Cc1ccc2c(N3CCN(C(=O)CCc4ccccn4)CC3)nc(-c3ccccc3O)nc2c1 [Example 133, 1-(4-(2-(2-Hydroxyphenyl)-7-methylquinazolin-4-yl)piperazin-1-yl)-3-(pyridin-2-yl)propan-1-one]	2 to 10
Cc1ccc2c(N3CCCC(C(=O)NCC4CCCO4)C3)nc(-c3ccccc3O)nc2c1 (centres unmarked) [Example 230, N-((Tetrahydrofuran-2-yl)methyl)-1-(2-(2-hydroxyphenyl)-7-methylquinazolin-4-yl)piperidine-3-carboxamide]	2 to 10
Cc1ccc2c(N3CCN(C(=O)OCC(C)C)CC3)nc(-c3c(C)cccc3O)nc2c1 [Example 193]	< 2
Cc1ccc2c(N3CCC(NC(=O)OCc4cccc5c4OCO5)CC3)nc(-c3ccccc3O)nc2c1 [Example 229, (Benzo[d][1,3]dioxol-7-yl)methyl 1-(2-(2-hydroxyphenyl)-7-methylquinazolin-4-yl)piperidin-4-ylcarbamate]	> 10
CCC(C)(O)C(=O)N1CCN(c2nc(-c3ccccc3O)nc3ccccc23)CC1 (centres unmarked) [Example 129, 2-Hydroxy-1-(4-(2-(2-hydroxyphenyl)quinazolin-4-yl)piperazin-1-yl)-2-methylbutan-1-one]	> 10
Cc1ccc2c(N3CCC[C@H](CNC(=O)O[C@H]4CCOC4)C3)nc(-c3ccccc3O)nc2c1 [Example 217, (S)-Tetrahydrofuran-3-yl ((R)-1-(2-(2-hydroxyphenyl)-7-methylquinazolin-4-yl)piperidin-3-yl)methylcarbamate]	> 10

The next lines start with the values.

IC50 [µM]	Structure (SMILES)
2 to 10	Cc1ccc2c(N3CCC[C@@H](CNC(=O)O[C@H]4CO[C@@H]5OCC[C@@H]54)C3)nc(-c3ccccc3O)nc2c1 [Example 281]
2 to 10	Cc1ccc2c(N3CCC(NC(=O)[C@H](O)CC(C)(C)C)CC3)nc(-c3c(O)cccc3F)nc2c1 [Example 249, (2R)—N-(1-(2-(2-Fluoro-6-hydroxyphenyl)-7-methylquinazolin-4-yl)piperidin-4-yl)-2-hydroxy-4,4-dimethylpentanamide]
> 10	O=C(NC[C@@H]1CCN(c2nc(-c3ccccc3O)nc3ccc(F)cc23)C1)O[C@H]1CCOC1 [Example 356, (S)-Tetrahydrofuran-3-yl ((S)-1-(6-fluoro-2-(2-hydroxyphenyl)quinazolin-4-yl)pyrrolidin-3-yl)methylcarbamate]
2 to 10	Cc1ccc2c(N3CCN(C(=O)C(O)CC(C)C)CC3)nc(-c3ccccc3O)nc2c1 (centres unmarked) [Example 270]
> 10	COc1cccc(C(=O)N[C@@H]2CCN(c3nc(-c4ccccc4O)nc4cc(C)ccc34)C2)c1 [Example 326, N—((R)-1-(2-(2-Hydroxyphenyl)-7-methylquinazolin-4-yl)pyrrolidin-3-yl)-3-methoxybenzamide]
> 10	O=C(NC[C@@H]1CCN(c2nc(-c3ccccc3O)nc3ccc(F)cc23)C1)O[C@@H]1CCOC1 [Example 355, (R)-Tetrahydrofuran-3-yl ((S)-1-(6-fluoro-2-(2-hydroxyphenyl)quinazolin-4-yl)pyrrolidin-3-yl)methylcarbamate]
> 10	Cc1ccc2c(N3CCC[C@@H](CNC(=O)OCC(C)C)C3)nc(-c3ccccc3O)nc2c1 [Example 252, Isobutyl ((S)-1-(2-(2-hydroxyphenyl)-7-methylquinazolin-4-yl)piperidin-3-yl)methylcarbamate]
> 10	O=C(N[C@@H]1CCN(c2nc(-c3ccccc3O)nc3ccc(F)cc23)C1)c1ccccn1 [Example 348, N—((R)-1-(6-Fluoro-2-(2-hydroxyphenyl)quinazolin-4-yl)pyrrolidin-3-yl)picolinamide]
> 10	Cc1ccc2c(N3CC[C@H](CNC(=O)O[C@@H]4CCOC4)C3)nc(-c3ccccc3O)nc2c1 [Example 306, (R)-Tetrahydrofuran-3-yl ((R)-1-(2-(2-hydroxyphenyl)-7-methylquinazolin-4-yl)pyrrolidin-3-yl)methylcarbamate]
< 2	CCOC(=O)NC[C@@H]1CCN(c2nc(-c3ccccc3O)nc3cc(C)ccc23)C1 [Example 364, Ethyl ((S)-1-(2-(2-hydroxyphenyl)-7-methylquinazolin-4-yl)pyrrolidin-3-yl)methylcarbamate]
> 10	Cc1ccc2c(N3CCC(NC(=O)C(C)(O)C(F)(F)F)CC3)nc(-c3ccccc3O)nc2c1 (centres unmarked) [Example 246, 2-(Trifluoromethyl)-2-hydroxy-N-(1-(2-(2-hydroxyphenyl)-7-methylquinazolin-4-yl)piperidin-4-yl)propanamide]
> 10	Cc1ccc2c(N3CCC(NC(=O)[C@@H](O)CC(C)C)CC3)nc(-c3ccccc3O)nc2c1 [Example 268]
> 10	Cc1ccc2c(N3CCC(C(=O)NCC4CCCO4)CC3)nc(-c3ccccc3O)nc2c1 (centres unmarked) [Example 271]
2 to 10	Cc1ccc2c(N3CCC(NC(=O)[C@H]4CCCO4)CC3)nc(-c3ccccc3O)nc2c1 [Example 276, (R)-Tetrahydro-furan-2-carboxylic acid {1-[2-(2-hydroxy-phenyl)-7-methyl-quinazolin-4-yl]-piperidin-4-yl}-amide]
2 to 10	Cc1ccc2c(N3CC[C@@H](CNC(=O)[C@H]4CCCO4)C3)nc(-c3ccccc3O)nc2c1 [Example 310, (2R)-Tetrahydro-N—(((S)-1-(2-(2-hydroxyphenyl)-7-methylquinazolin-4-yl)pyrrolidin-3-yl)methyl)furan-2-carboxamide]
2 to 10	O=C(N[C@@H]1CCN(c2nc(-c3ccccc3O)nc3ccc(F)cc23)C1)C1CC1 [Example 329, N—((R)-1-(6-Fluoro-2-(2-hydroxyphenyl)quinazolin-4-yl)pyrrolidin-3-yl)cyclopropanecarboxamide]
> 10	Cc1ccc2c(N3CC[C@@H](NC(=O)c4cccc(OC(F)(F)F)c4)C3)nc(-c3ccccc3O)nc2c1 [Example 325, N—((R)-1-(2-(2-Hydroxyphenyl)-7-methylquinazolin-4-yl)pyrrolidin-3-yl)-3-(trifluoromethoxy)benzamide]
< 2	Cc1ccc2c(N3CC[C@@H](CNC(=O)OCC(C)C)C3)nc(-c3c(O)cccc3F)nc2c1 [Example 372, Isobutyl ((S)-1-(2-(2-fluoro-6-hydroxyphenyl)-7-methylquinazolin-4-yl)pyrrolidin-3-yl)methylcarbamate]
2 to 10	O=C(N[C@@H]1CCN(c2nc(-c3ccccc3O)nc3ccc(F)cc23)C1)O[C@@H]1CCOC1 [Example 337, (R)-Tetrahydrofuran-3-yl (R)-1-(6-fluoro-2-(2-hydroxyphenyl)quinazolin-4-yl)pyrrolidin-3-ylcarbamate]
> 10	CCCC(O)C(=O)NC1CCN(c2nc(-c3ccccc3O)nc3cc(C)ccc23)CC1 (centres unmarked) [Example 247, 2-Hydroxy-N-(1-(2-(2-hydroxyphenyl)-7-methylquinazolin-4-yl)piperidin-4-yl)pentanamide]
> 10	CC(O)(C(=O)NC1CCN(c2nc(-c3ccccc3O)nc3ccccc23)CC1)C(F)(F)F (centres unmarked) [Example 239, 2-(Trifluoromethyl)-2-hydroxy-N-(1-(2-(2-hydroxyphenyl)quinazolin-4-yl)piperidin-4-yl)propanamide]
< 2	Cc1ccc2c(N3CC[C@@H](CNC(=O)C4CC4)C3)nc(-c3ccccc3O)nc2c1 [Example 311, N—(((S)-1-(2-(2-Hydroxyphenyl)-7-methylquinazolin-4-yl)pyrrolidin-3-yl)methyl)cyclopropanecarboxamide]
